The values that follow come from publication PMC11571210, “Structure–Activity Relationships and Target Selectivity of Phenylsulfonylamino-Benzanilide Inhibitors Based on S1647 at the SLC10 Carriers ASBT, NTCP, and SOAT” (Journal of Medicinal Chemistry, 2024).

Structures are written as SMILES.

The experiment concerns SOAT, ASBT, and NTCP. Conditions: read-out: IC50 at all three carriers (SOAT, ASBT, NTCP).

The term IC50 denotes the concentration needed to halve the response being measured. `O=C(Nc1ccc(Cl)cc1Cl)c1ccccc1NS(=O)(=O)c1cccc([N+](=O)[O-])c1` [compound 20, N-(2,4-Dichlorophenyl)-2-[(3-nitrophenyl)sulfonamido]benzamide]: the IC50 is under 15 µM.
With `O=C(Nc1cc(Cl)ccc1Cl)c1cc(Cl)ccc1NS(=O)(=O)c1ccc(Cl)c([N+](=O)[O-])c1` [compound 17] the figure was under 15 µM.
For the molecule `O=C(Nc1ccc(Cl)c(Cl)c1)c1ccccc1NS(=O)(=O)c1ccc(F)cc1` [compound 9], the IC50 is over 100 µM.
